Our source for the EC50, IC50 and AC50 values is ChEMBL document CHEMBL1201862, “PubChem BioAssay data set” (2004).

Molecules are shown by their SMILES. Activity calls are given as the source filed them. A value given as a limit tells only on which side of the number the result lay.

Experiment [1] is described as follows: viability of PTEN-deleted HCT116 cells – cell-based, HCT116 PTEN knockout, dose response (AID 1047).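 Further: HCT116 colon tumor cells with PTEN knocked out; cells exposed to compound for 60 hours before readout; potency for loss of cell viability measured by luminescence.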 The class given is functional.
Experiment [2] can be described thus: viability of HCT116 lacking mutant beta-catenin – cell-based, human colon tumor, dose response (AID 1045).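 Further: HCT116 colon tumor cells with beta catenin knocked out; cells exposed to compound for 60 hours.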 In kind it is functional.
Experiment [3] has as its target T1, Heat shock factor protein 1 (Mus musculus, UniProt P38532).
T1 sequence (P38532 whole entry): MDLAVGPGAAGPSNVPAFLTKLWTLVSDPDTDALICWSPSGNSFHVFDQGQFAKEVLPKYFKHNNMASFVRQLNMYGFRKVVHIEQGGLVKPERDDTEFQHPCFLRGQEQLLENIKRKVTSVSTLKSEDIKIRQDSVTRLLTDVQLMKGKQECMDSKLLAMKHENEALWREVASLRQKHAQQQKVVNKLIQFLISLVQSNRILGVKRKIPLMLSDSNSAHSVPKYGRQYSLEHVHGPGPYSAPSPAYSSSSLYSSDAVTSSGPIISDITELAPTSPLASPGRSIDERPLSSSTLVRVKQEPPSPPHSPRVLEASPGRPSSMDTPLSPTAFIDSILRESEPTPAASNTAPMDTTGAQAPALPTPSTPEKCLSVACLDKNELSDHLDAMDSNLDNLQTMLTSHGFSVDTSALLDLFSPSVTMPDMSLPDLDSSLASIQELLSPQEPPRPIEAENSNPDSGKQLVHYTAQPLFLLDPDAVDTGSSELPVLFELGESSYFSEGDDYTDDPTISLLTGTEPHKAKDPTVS
Briefly: decrease of HSF1-responsive luciferase luminescence – cell-based, NIH3T3, dose retest, confirmation (AID 2382).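 Further: NIH3T3 fibroblasts with HSF1-driven luciferase reporter stressed by proteasome inhibitor MG132; luminescence from HSF1-driven luciferase expression after 8 hours of MG132 stress.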 The class given is functional.

A short description of experiment [4]: cells. The class given is functional.
The subject of experiment [5] is INS1. In words: INS-1E survival protection against cytokine death – cell-based, luminescence, retest, dose response (AID 449756).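 Further: cell death triggered by IL-1 beta plus TNF-alpha plus IFN-gamma mixture; protective hits raise ATP signal compared with cytokine alone wells.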 The class given is functional. The following applies: Rattus norvegicus.
Experiment [6] addresses T2, Corticotropin-releasing factor receptor 2/Corticotropin-releasing factor-binding protein (Homo sapiens, UniProt P24387+Q13324).
T2 sequence (Q13324 whole entry): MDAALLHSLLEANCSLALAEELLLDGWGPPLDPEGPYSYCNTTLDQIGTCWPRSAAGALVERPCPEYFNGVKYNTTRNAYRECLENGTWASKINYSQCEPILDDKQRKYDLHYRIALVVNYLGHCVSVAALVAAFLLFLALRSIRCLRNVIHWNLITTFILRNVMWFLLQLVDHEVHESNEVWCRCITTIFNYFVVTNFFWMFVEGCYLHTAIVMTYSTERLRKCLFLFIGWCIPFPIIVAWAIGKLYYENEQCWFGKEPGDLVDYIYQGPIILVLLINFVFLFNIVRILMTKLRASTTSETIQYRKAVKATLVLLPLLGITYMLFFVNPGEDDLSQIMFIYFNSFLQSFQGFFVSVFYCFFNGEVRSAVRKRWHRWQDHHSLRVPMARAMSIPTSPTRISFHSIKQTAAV
T2 sequence (P24387 whole entry): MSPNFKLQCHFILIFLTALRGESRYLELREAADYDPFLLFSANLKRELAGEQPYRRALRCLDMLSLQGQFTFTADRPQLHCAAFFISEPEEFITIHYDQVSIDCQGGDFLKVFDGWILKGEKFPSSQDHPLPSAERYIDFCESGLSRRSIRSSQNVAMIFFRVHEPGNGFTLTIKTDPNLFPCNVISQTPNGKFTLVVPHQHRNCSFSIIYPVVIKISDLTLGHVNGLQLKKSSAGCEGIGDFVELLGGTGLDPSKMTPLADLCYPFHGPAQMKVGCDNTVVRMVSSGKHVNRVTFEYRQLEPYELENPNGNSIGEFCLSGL
In words: activators of CRF receptor 2 with binding protein – uHTS hits, confirmation (AID 602473). Particulars: read-out: EC50_Mean. The class given is functional.

Experiment [7] deals with T2, Corticotropin-releasing factor receptor 2/Corticotropin-releasing factor-binding protein. Briefly: Dose Response confirmation of uHTS hits for small molecule antagonists of the CRF-binding protein and CRF-R2 receptor complex. The class given is functional. Particulars: read-out: IC50_Mean.
Experiment [8] concerns the target T3, Rac GTPase-activating protein 1 (Homo sapiens, UniProt Q9H0H5).
T3 sequence (Q9H0H5 whole entry): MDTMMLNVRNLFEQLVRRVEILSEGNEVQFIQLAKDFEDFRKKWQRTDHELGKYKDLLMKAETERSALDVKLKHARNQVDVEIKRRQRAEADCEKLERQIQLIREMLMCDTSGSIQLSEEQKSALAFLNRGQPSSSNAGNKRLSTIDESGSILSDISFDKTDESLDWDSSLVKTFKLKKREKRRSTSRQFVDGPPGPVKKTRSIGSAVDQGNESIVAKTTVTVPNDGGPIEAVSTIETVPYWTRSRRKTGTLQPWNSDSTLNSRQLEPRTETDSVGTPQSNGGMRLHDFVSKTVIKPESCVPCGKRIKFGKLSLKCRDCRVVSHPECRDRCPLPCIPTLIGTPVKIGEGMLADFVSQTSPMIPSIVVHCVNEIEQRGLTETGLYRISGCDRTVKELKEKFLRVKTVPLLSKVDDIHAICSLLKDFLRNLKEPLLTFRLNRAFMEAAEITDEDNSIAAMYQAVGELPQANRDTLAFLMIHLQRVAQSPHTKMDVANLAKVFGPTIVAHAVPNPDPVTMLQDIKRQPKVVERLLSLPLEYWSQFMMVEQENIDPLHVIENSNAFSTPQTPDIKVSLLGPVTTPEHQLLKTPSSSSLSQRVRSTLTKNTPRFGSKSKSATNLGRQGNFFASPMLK
Briefly: blockers of MgcRacGAP-driven Rac1 GTP hydrolysis – biochemical, ADP Hunter fluorescence, primary and confirmatory, confirmation (AID 624330). In kind it is functional.

The target of experiment [9] is T4, Cytochrome P450 1A2 (Homo sapiens, UniProt P05177).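 Further: PubChem cytochrome P450 panel assay, CYP1A2 panel member.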
T4 sequence (P05177 whole entry): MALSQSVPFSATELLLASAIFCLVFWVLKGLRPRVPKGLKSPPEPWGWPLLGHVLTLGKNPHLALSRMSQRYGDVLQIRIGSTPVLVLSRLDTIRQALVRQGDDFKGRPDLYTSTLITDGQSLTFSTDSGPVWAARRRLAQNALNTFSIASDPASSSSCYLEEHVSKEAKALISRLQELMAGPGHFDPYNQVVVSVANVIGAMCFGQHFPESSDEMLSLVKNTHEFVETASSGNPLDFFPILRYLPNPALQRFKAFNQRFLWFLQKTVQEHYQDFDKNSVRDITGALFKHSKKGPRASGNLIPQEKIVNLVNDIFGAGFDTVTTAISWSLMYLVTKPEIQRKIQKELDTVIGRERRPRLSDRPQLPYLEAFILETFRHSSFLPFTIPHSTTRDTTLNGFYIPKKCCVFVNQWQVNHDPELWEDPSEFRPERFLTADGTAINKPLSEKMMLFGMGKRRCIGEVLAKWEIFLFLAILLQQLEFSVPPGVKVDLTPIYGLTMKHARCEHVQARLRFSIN

Take `CCc1nn2cc(C(=O)c3cc(Cl)ccc3O)cnc2c1-c1ccc(F)cc1`: the EC50 in experiment [1] was 30.7 µM (active); in experiment [2] it was 28.3 µM (active).

`Cc1cccc2sc(NNC(=O)C3COc4ccccc4O3)nc12` (stereo not given): the EC50 in experiment [1] was 38.9 µM (active); in experiment [3] it was > 195 µM (not active); in experiment [2], 36.7 µM (active).

Take `Cc1ccc(/C=C2\SC(N3CCCC3)=NC2=O)cc1`: in [4], the IC50 is 5.13 µM (active).

For the compound `O=C(OCc1c(Cl)cccc1Cl)c1ccccn1`, the IC50 in experiment [4] was 10.6 µM (active).

Consider `CCCCOC(=O)c1ccc(NC(c2ccc(C)cc2)P(=O)(OC)OC)cc1` (stereo not given), for which the concentration at half-maximal activity (AC50) (in general, the concentration giving half of the maximal activity seen) in experiment [5] was 30.8 µM (active). In addition, the EC50 in experiment [6] was > 53 µM (inactive). Also, in experiment [7], the IC50 is > 47.1 µM (inactive).

`CSCSC1=C(C#N)C(c2ccccc2Cl)C(C(C)=O)=C(C)N1` (stereo not given): in [6], the EC50 is > 53 µM (inactive). Further, in experiment [7], the IC50 is > 47.1 µM (inactive).

For `CC1C(=O)C(C)C(c2cccs2)NC1c1cccs1` (stereo not given), the EC50 in experiment [6] is > 53 µM (inactive). In [7], the IC50 was > 47.1 µM (inactive).

With `CCOC(=O)CN(C#N)c1nc(N(C)C)nc(N(C)C)n1`, in [4], the IC50 is 26.9 µM (active).

Regarding `FC(F)(F)c1nnc2sc(-c3cccs3)nn12`, the EC50 in experiment [6] is > 53 µM (inactive). In addition, in experiment [7], the IC50 was > 47.1 µM (inactive).

Regarding `CCOc1ccc(-n2c(=O)c3c4c(sc3n(CC(=O)NCc3ccco3)c2=O)CCC4)cc1`, the figures for the EC50 in experiment [1] and in experiment [2] were 30.2 µM (active) and 27.7 µM (active), respectively.

For `COC(=O)C(OC(=O)c1ccccc1)C(C)Br` (stereo not given), in experiment [6], the EC50 was > 53 µM (inactive). The IC50 in experiment [7] was > 47.1 µM (inactive).

In the case of `COc1ccc(/C=C2\CCC(C3CCCC3)C2=O)cc1OC` (stereo not given), the EC50 in experiment [6] was > 53 µM (inactive). In experiment [7], the IC50 was > 47.1 µM (inactive).

With `CN(C)c1ncnc2c1N=C1CC(C)(C)CC(NCCCC(=O)O)=C1S2`, the EC50 in experiment [6] is > 53 µM (inactive). Further, the IC50 is > 47.1 µM (inactive) in experiment [7] and 78.8 µM (active) in experiment [8].

For the compound `Cc1cc2nc(-c3ccc(SCC(=O)N4CCc5ccccc54)nc3)[nH]c2cc1C`, the EC50 in experiment [1] was 6.92 µM (active); in experiment [2] it was 7.55 µM (active). Moreover, the AC50 in experiment [9] was 3.16 µM (inconclusive).

On to `Cc1nn(-c2ccc([N+](=O)[O-])cc2)c(N)c1-c1ccccc1`, for which the EC50 in experiment [6] is > 53 µM (inactive). The IC50 in experiment [7] was > 47.1 µM (inactive).

As for `CC(C)C(=O)Nc1cccc(-c2nc3ccccc3c(=O)o2)c1`, in experiment [4], the IC50 was 20.7 µM (active).

For the compound `CCOC(=O)c1c(C)[nH]c(C)c1C(=O)COC(=O)/C=C/c1ccc(Cl)cc1`, the EC50 in [6] was > 53 µM (inactive). Also, the IC50 in experiment [7] was > 47.1 µM (inactive).

On to `COc1ccc(N2C(=O)/C(=C\NNS(=O)(=O)c3ccc(C)cc3)c3ccccc3C2=O)cc1OC`, for which the EC50 is 40.4 µM (active) in [1] and > 53 µM (inactive) in experiment [6].

As to `CCCN1CCN(C2CCCCC2NS(=O)(=O)c2ccc(Cl)cc2)CC1` (stereo not given), the EC50 in [6] was > 53 µM (inactive). In experiment [7], the IC50 was > 47.1 µM (inactive).

Take `O=[N+]([O-])c1ccc(CN2CCN(c3ccccc3)CC2)o1`: the IC50 in experiment [4] is 0.13 µM (active).

Regarding `CC(C)CCOP(=O)(c1ccc(N(C)C)cc1)C(Nc1ccccc1)c1ccc(N(C)C)cc1` (stereo not given), the EC50 in experiment [6] is > 53 µM (inactive). In addition, the IC50 in experiment [7] is > 47.1 µM (inactive).

In the case of `COc1cccc(C2C(C(=O)c3ccc(C)o3)=C(O)C(=O)N2CCN2CCOCC2)c1OC` (stereo not given), the EC50 in experiment [6] is > 53 µM (inactive). For the same compound, the IC50 in experiment [7] is > 47.1 µM (inactive).

Turning to `Cc1ccc(S(=O)(=O)N2CCC(c3nc4c(nnn4Cc4ccccc4)c(=O)[nH]3)CC2)cc1`, in experiment [6], the EC50 is > 53 µM (inactive). In addition, the IC50 in experiment [7] was > 47.1 µM (inactive).

In the case of `O=C(COc1ccccc1)NCCSCc1ccc(Cl)cc1`, the IC50 in experiment [4] is 22.2 µM (active).

Consider `CCN(CC(=O)Nc1ccc(OC)cc1)C(=O)c1cc(S(=O)(=O)N2CCOCC2)ccc1N1CCCC1`, for which, in experiment [6], the EC50 is > 53 µM (inactive). In addition, the IC50 in [7] was > 47.1 µM (inactive).

As to `CC1CCN(C(=O)c2nc[nH]c2C(=O)N[C@@H](C)C(=O)OC(C)(C)C)CC1`, the EC50 in experiment [6] is > 53 µM (inactive). The IC50 in [7] was > 47.1 µM (inactive).

For `O=[N+]([O-])c1ccccc1C=NNC(=S)NN=Cc1ccccc1[N+](=O)[O-]`, the EC50 in experiment [6] is > 53 µM (inactive). The IC50 in experiment [7] is > 47.1 µM (inactive).

In the case of `O=C(COC(=O)c1cc(Br)ccc1Cl)NC1CCCC1`, the IC50 in experiment [4] is 18.2 µM (active).

For `CC1=C(C(=O)Nc2ccccc2C)C(c2ccc(C)o2)n2c(s/c(=C/c3ccccc3)c2=O)=N1` (stereo not given), the EC50 is 347 µM (active) in experiment [1] and 442 µM (active) in experiment [2].

Regarding `CN(C)c1ccc(/C=N/c2ccc(N(C)C)cc2)cc1`, the EC50 in experiment [1] is 28.5 µM (active); in experiment [2], 524 µM (active).

For the compound `CCC/C(=N/CC(=O)O)C1=C(O)C(C(=O)OC)C(C)(C)CC1=O` (stereo not given), the EC50 in experiment [6] is > 53 µM (inactive). Also, in [7], the IC50 is > 47.1 µM (inactive).

On to `COC(=O)c1ccc(/C(O)=C(\C#N)c2nc3ccccc3s2)cc1`, for which, in [6], the EC50 was > 53 µM (inactive). The IC50 in [7] is 3.93 µM (active).

For the compound `CC(C)(C)C(=O)/C=C/Nc1ccccc1O`, the IC50 in [4] is 3.27 µM (active).

`COc1ccc(C2CC(c3cccs3)=NN2C(=O)c2ccccc2)cc1OC` (stereo not given): the EC50 in [6] was > 53 µM (inactive). In experiment [7], the IC50 was > 47.1 µM (inactive).

Take `c1ccc(C2=Nc3ccccc3OC2)cc1`: the IC50 in [4] is 7.95 µM (active).
